Source: patent US12343339B2, “Bisaminoquinolines and bisaminoacridines compounds and methods of their use” (THE TRUSTEES OF THE UNIVERSITY OF PENNSYLVANIA, priority 2019, dated 2025)
Converted amounts (≈) assume the structure as drawn. Like-named read-outs stand apart in the source and are kept apart here.

Key:
[1] = Plasma stability; format: in vitro ADME; conditions: 3 μM, 37° C.
Protocol: Stability of drug assessed in plasma to determine the percent remaining and half-life of the compound.
Assay Procedure: • 1. Fresh blood was collected in tubes containing anticoagulant (K2 EDTA) and the plasma collected by centrifugation. • 2. 3 mM of the test compound was prepared in DMSO from 20 mM main stock. • 3. 1 μL of test compound (3 mM) was incubated at 37° C. in 999 μL of plasma (3 μM final concentrations, 0.1% DMSO, final volume 1,000 μL). • 4. The reactions were terminated at 0, 30, 60 and 120 min by addition of two volumes of acetonitrile, containing IS (200 ng/mL) resulting in protein precipitation. • 5. After termination of reaction at individual time points, the samples were stored at −80±10° C. till the completion of experiment. • 6. On completion of last incubation point, all the samples were centrifuge at 14,000 rpm for 10 min. • 7. Supernatant (200 μL) from each reaction tube was taken for LC-MS/MS analysis.

[2] = Buffer stability in phosphate buffered saline; format: physicochemical; conditions: PBS pH 7.4, 3 μM, 37° C.
Protocol: Assay Procedure: • 1. Test compound was prepared at 3 mM in DMSO from 10 mM working stock. • 2. The experiment was conducted in Phosphate buffered saline with a final concentration of 3 μM. • 3. The vials were incubated at 37° C. in a hybridization oven for respective time points. • 4. After incubation time, equal volumes of quenching solution was added. • 5. Samples were centrifuged at 14,000 rpm for 5 min at 4° C. • 6. Supernatant was transferred into vials and analyzed in HIPLC.

[3] = tested on: A375 cells; test: Cytotoxicity assay, cell proliferation (Alamar Blue); format: cell-based; conditions: Homo sapiens, A-375, 72 h
Protocol: (§1) Media Preparation Protocol:— • Media composition for cell preservation (4 ml): 900 μl of Hi-FBS+[…] of DMSO Complete Media Preparation (500 ml): For DLD1n& A375:
(§2) Cell Culture Protocol:— 1) Protocol for Reviving Cell Line(s) • 1. Take out the cell vials from LN2 container & thaw immediately at 37° C. • 2. Wipe it with 70% alcohol properly • 3. Transfer to sterile centrifuge tubes containing 9 ml media & spin at 1000 rpm for 5 min. • 4. Discard the supernatant & resuspend the pellet in 2-3 ml media and transfer to T-75 or T-150 culture flasks containing 15 or 30 ml media respectively. • 5. Incubate at 37° C.-5% CO2. 2) Protocol for Sub-Culturing Cell Line(s)
(§3) Cells should be sub-cultured when they reach 70-80% confluence. • 1. Discard the media from cell culture flask. • 2. Add 3 to 4 ml of TrypLE Express dissociation solution; keep in CO2 incubator for ˜5 min. Mix gently to avoid cell clumping. • 3. Add 4.0 to 5.0 ml of complete growth medium and mix gently & transfer to centrifuge tube. • 4. Centrifuge at 1000 rpm for 5 min. • 5. Discard the supernatant & re-suspend the pellet in 3-4 ml of media. • 6. Count the cells in cell counter or using hemocytometer. • 7. Split the cells in 1:2 or 1:4 ratio into new culture flasks. • 8. Incubate cultures at 37° C.-5% CO2 to get confluence 3) Protocol for Preserving Cell Line(s) • 1. Discard the spent media from the TC flask. • 2. Add 3 to 4 ml of TrypLE Express dissociation solution; keep in CO2 incubator for ˜5 min. Mix gently to avoid cell clumping. • 3. Add 4.0 to 5.0 ml of complete growth medium and mix gently & transfer to centrifuge tube. • 4. Centrifuge at 1000 rpm for 5 min. • 5. Discard the supernatant & re-suspend the pellet in 3-4 ml of media. • 6. Count the cells in cell counter or using hemocytometer. • 7. Spin at 1000 rpm for 5 min, discard the supernatant and re-suspend the pellet in 900 μl of media+100 μl of DMSO (Freeze app. 1.5 to 3 million cells/vial). • 8. Keep the vials in −80° C. overnight & transfer to LN2 container. Cell Proliferation (Alamar Blue) Assay:— • Seed cells at 2000 cells in 100 μL/well in 96-well tissue culture plate. Leave outer wells without cells for background measurements. Incubate at 37° C./5% CO2 for 16-18 hours. • Add 10× concentration compound dilution or DMSO control so that the final concentration is 1× and DMSO concentration 0.5%. Compound is prepared in 3-fold serial dilutions. Incubate for 72 h at 37° C./5% CO2. • Add Alamar Blue™ reagent to each well with multi-channel pipette and tap gently on each side of the plate to mix. Incubate for 3 hours at 37° C./5% CO2. • Read plates on fluorescence reader (Tecan i-control, 1.11.1.0, Device: infinite 200, Serial number: 810001990) at 540 nm excitation, 590 nm emission wavelength. • Data analysis using Graph pad prism Assay Acceptance Criteria • S/N Ratio should be >3. • Z′ should be >0.4

[4] = tested on: DLD-1 cells; test: as above; format: cell-based; conditions: Homo sapiens, 72 h
Protocol: as §1, §2, §3

[5] = tested on: MiaPaCa-2 cells; test: as above; format: cell-based; conditions: Homo sapiens, MIA PaCa-2, 72 h
Protocol: as §2, §3

[6] = Blood partitioning (blood to plasma ratio); format: in vitro ADME; conditions: fresh pooled whole blood, fresh mouse blood, 37° C., read-out: Mice blood to plasma ratio
Protocol: Blood to plasma ratio defines the concentration of a drug in whole blood (that is, target drug containing both erythrocytes and plasma) to the concentration of target drug in plasma. The red blood cell partition coefficient is the ratio of the concentration of drug in the red blood cells (that is, not including plasma) to concentration of drug in plasma.
Assay Procedure: • 1. Fresh blood was collected. • 2. An aliquot of 50 μL blood was taken from individual tubes and centrifuged to check for any haemolysis. Tube with haemolysed blood was not considered for experiment. • 3. Non-haemolysed blood in individual tubes was pooled and incubated at 37° C. • 4. 999 μL aliquot of pooled blood was taken in individual tubes. One of these tubes was designated for Chloroquine (positive control). Incubations for the test compound were similarly done in other aliquot. • 5. 1 μL of test compound (0.1% DMSO concentration) or positive control solution was spiked into each of the above tubes. • 6. Above tubes were incubated at 37° C. for 30 min. • 7. Post incubation, an aliquot (˜50 μL) was taken and centrifuged to check for haemolysis. • 8. Subsequently, 100 μL of blood sample from the incubation mixture tube was transferred into a separate labeled tube and quenched with 200 μL of Acetonitrile containing Internal standard. • 9. […]

[7] = Kinetic solubility across pH (PBS pH 7.4, FaSSGF pH 1.6, FaSSIF pH 6.5); format: physicochemical; conditions: kinetic from dmso stock
Protocol: Kinetic solubility method was used to determine the solubility of NCEs across pH ranges, PBS pH 7.4, FaSSGF pH 1.6 & FaSSIF pH 6.5.
Procedure • 1. Seven calibration standards (i.e. 1, 5, 10, 50, 100, 200 and 300 μM) were prepared in DMSO from the 20 mM primary stock solution. • 2. Dispensed an aliquot of 198 IL of 0.001 M PBS into duplicate wells of a multiscreen solubility filter plate. • 3. Subsequently, added 2 μL of test compound solution (20 mM primary stock solution), cover the plate and shake at 150 rotations per minute for 90 minutes. • 4. At the end of 90 minutes, samples were filtered using MultiScreen HTS vacuum Manifold assembly and the filtrate was collected into the acceptor plate. • 5. An aliquot of 150 μL of filtrate from the above 96-well acceptor plate was transferred into HIPLC vials and analyzed by HIPLC-UV.

[8] = average of N1 and N2, read-out: Average pIC50 (n = 2) (converted)
[9] = replicate N1, read-out: IC50 N1
[10] = replicate N1, read-out: pIC50 N1 (converted)
[11] = replicate N2, read-out: IC50 N2
[12] = replicate N2, read-out: pIC50 N2 (converted)

SMILES: COc1ccc2nc3cc(Cl)ccc3c(NCCOCCN(C)CCOCCNc3c4ccc(Cl)cc4nc4ccc(OC)cc34)c2c1 [Dioxo-DQ-551]
- Mouse plasma stability (% remaining @ 120 min) [1]: 88%
- PBS pH 7.4 stability (% remaining @120 min) [2]: 100%
- IC50 [3, 8]: 794 nM
- IC50 [3, 9]: 440 nM
- IC50 [3, 10]: 447 nM
- IC50 [3, 11]: 1450 nM
- IC50 [3, 12]: 1450 nM
- IC50 [4, 8]: 708 nM
- IC50 [4, 9]: 330 nM
- IC50 [4, 10]: 324 nM
- IC50 [4, 11]: 1560 nM
- IC50 [4, 12]: 1550 nM
- IC50 [5, 8]: 174 nM
- IC50 [5, 9]: 150 nM
- IC50 [5, 10]: 151 nM
- IC50 [5, 11]: 210 nM
- IC50 [5, 12]: 204 nM
- blood plasma ratio at 30 min [6]: 12.6
- solubility at 90 min ([7]; aqueous buffer, PBS pH 7.4, 90 minutes shaking, read-out: PBS pH 7.4 solubility): 39 µM (≈ 26.9 µg/mL)
- solubility at 90 min ([7]; fassgf or other biorelevant, FaSSGF pH 1.6, 90 minutes shaking, read-out: FaSSGF pH 1.6 solubility): ~200 µM (≈ 138 µg/mL)
- solubility at 90 min ([7]; FaSSIF pH 6.5, 90 minutes shaking, read-out: FaSSIF pH 6.5 solubility): 62 µM (≈ 42.7 µg/mL)

SMILES: COc1cccc2c1C(=O)c1c(O)c3c(c(O)c1C2=O)C[C@@](O)(C(=O)CO)C[C@@H]3O[C@H]1C[C@H](N)[C@H](O)[C@H](C)O1 [Doxorubicin]
- IC50 [3, 8]: 28.2 nM
- IC50 [3, 9]: 20 nM
- IC50 [3, 10]: 24.5 nM
- IC50 [3, 11]: 30 nM
- IC50 [3, 12]: 31.6 nM
- IC50 [4, 8]: 380 nM
- IC50 [4, 9]: 250 nM
- IC50 [4, 10]: 245 nM
- IC50 [4, 11]: 590 nM
- IC50 [4, 12]: 589 nM
- IC50 [5, 8]: 89.1 nM
- IC50 [5, 9]: 100 nM
- IC50 [5, 10]: 97.7 nM
- IC50 [5, 11]: 80 nM
- IC50 [5, 12]: 81.3 nM

SMILES: CCN(CC)CCCC(C)Nc1c2ccc(Cl)cc2nc2ccc(OC)cc12 (stereo not drawn) [Quinacrine]
- IC50 [3, 8]: 2240 nM
- IC50 [3, 9]: 1280 nM
- IC50 [3, 10]: 1290 nM
- IC50 [3, 11]: 3840 nM
- IC50 [3, 12]: 3800 nM
- IC50 [4, 8]: 4370 nM
- IC50 [4, 9]: 2520 nM
- IC50 [4, 10]: 2510 nM
- IC50 [4, 11]: 7540 nM
- IC50 [4, 12]: 7590 nM
- IC50 [5, 8]: 2510 nM
- IC50 [5, 9]: 2680 nM
- IC50 [5, 10]: 2690 nM
- IC50 [5, 11]: 2340 nM
- IC50 [5, 12]: 2340 nM
